The source of these data is PubChem BioAssay (NCI).

Usually TGI stands for the concentration at which net growth stops. Higher therefore signals lower sensitivity of the cells. In general, GI50 refers to the concentration that inhibits growth by half.

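Values below derive from 48-hour exposures of cells grown in 96-well plates, with endpoints linearly interpolated between the two concentrations bracketing the appropriate inhibition level. GI50 is the concentration that inhibits growth by half. TGI: concentration producing complete growth inhibition.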 A value given as a limit tells only on which side of the number the result lay.

In one test the test system is HCT-15 colon. The experiment in a line: DTP human tumour cell line panel, 48 h.
In turn, `COCCOC(=O)C1=C(O)c2ccccc2S(=O)(=O)N1C` showed a total growth inhibition concentration (TGI) greater than 100 µM.

As to `CNC(=O)OCc1nc(SSC(C)(C)C)n(C)c1COC(=O)NC`, the TGI was 4.14 µM.

`CC1(C)N=C(N)N=C(N)N1c1ccc(CCC(=O)Nc2ccc(S(=O)(=O)F)cc2)c(Cl)c1`: the GI50 is 2.92 µM and the TGI was greater than 100 µM.

In the case of `CC(C)CNc1nc(-c2ccccc2Cl)nc2ccccc12`, the GI50 is 17.1 µM and the total growth inhibition concentration (TGI) worked out at 32.1 µM.

Consider `COC(=O)c1ccc2[nH]c(O)c(C(=Nc3ccc(N(C)C(=O)CN4CCN(C)CC4)cc3)c3ccc4c(c3)OCO4)c2c1`, for which the GI50 is 1.52 µM and the TGI is 5.8 µM.

As to `COc1ccc2c(c1)OC1=C(C(=O)OC1)C2c1cc(OC)c2c(c1)OCCO2` (configuration not stated), the 50% growth inhibitory concentration (GI50) is 0.0531 µM and the total growth inhibition concentration (TGI) is greater than 100 µM.

For `N[C@H](C(=O)O)[C@@H]1CC(Cl)=NO1`, the GI50 was 8.33 µM and the TGI was greater than 912 µM.

With `Oc1ccc2ccccc2c1N=Nc1cccc2ccccc12`, the TGI was greater than 100 µM.

For the compound `COc1ccc2c(c1)NC1=C(C(=O)OC1)C2c1cc(OC)c(OC)c(OC)c1` (configuration not stated), the concentration for 50% growth inhibition (GI50) was less than 0.01 µM and the concentration for total growth inhibition (TGI) was greater than 100 µM.

In the case of `CCOc1cc(C(C)(C)C)ccc1C1=N[C@H](c2ccc(Cl)cc2)[C@H](c2ccc(Cl)cc2)N1C(=O)N1CCN(CC#Cc2cccc3c2CN([C@@H]2CCC(=O)NC2=O)C3=O)CC1`, the GI50 is 0.301 µM and the TGI is greater than 53.5 µM.

In turn, `NCCCNCCS` displayed a total growth inhibition concentration (TGI) greater than 100 µM.

As for `CN(C)CCOc1ccc([N+](=O)[O-])c2cccnc12`, the total growth inhibition concentration (TGI) was greater than 100 µM.

On to `Nc1ncnc2c1ncn2C1C=C(CO)C(O)C1O` (configuration not stated), for which the TGI is greater than 53.7 µM.

For another test, the system named is SK-MEL-28 melanoma. Nature of the test: DTP human tumour cell line panel, 48 h.
As to `Nc1n[nH]c2cccc(C#Cc3cccc(NC(=O)c4cccc(C(F)(F)F)c4)c3)c12`, the GI50 was 2.72 µM and the TGI came to 12.5 µM.

On to `COCCOC(=O)C1=C(O)c2ccccc2S(=O)(=O)N1C`, for which the TGI is greater than 100 µM.

On to `CNC(=O)OCc1nc(SSC(C)(C)C)n(C)c1COC(=O)NC`, for which the TGI worked out at 4.67 µM.

Regarding `CC1(C)N=C(N)N=C(N)N1c1ccc(CCC(=O)Nc2ccc(S(=O)(=O)F)cc2)c(Cl)c1`, the GI50 is 22.8 µM and the TGI is greater than 100 µM.

With `CC(C)CNc1nc(-c2ccccc2Cl)nc2ccccc12`, the GI50 was 20.8 µM and the TGI was 40.7 µM.

For `COC(=O)c1ccc2[nH]c(O)c(C(=Nc3ccc(N(C)C(=O)CN4CCN(C)CC4)cc3)c3ccc4c(c3)OCO4)c2c1`, the GI50 was 1.21 µM and the total growth inhibition concentration (TGI) came to 2.92 µM.

For the compound `COc1ccc2c(c1)OC1=C(C(=O)OC1)C2c1cc(OC)c2c(c1)OCCO2` (configuration not stated), the GI50 was 0.0517 µM and the TGI was greater than 100 µM.

For the compound `N[C@H](C(=O)O)[C@@H]1CC(Cl)=NO1`, the GI50 is 28.9 µM and the TGI is greater than 1000 µM.

Consider `Oc1ccc2ccccc2c1N=Nc1cccc2ccccc12`, for which the total growth inhibition concentration (TGI) is greater than 100 µM.

As for `COc1ccc2c(c1)NC1=C(C(=O)OC1)C2c1cc(OC)c(OC)c(OC)c1` (configuration not stated), the total growth inhibition concentration (TGI) is greater than 100 µM.

For `CCOc1cc(C(C)(C)C)ccc1C1=N[C@H](c2ccc(Cl)cc2)[C@H](c2ccc(Cl)cc2)N1C(=O)N1CCN(CC#Cc2cccc3c2CN([C@@H]2CCC(=O)NC2=O)C3=O)CC1`, the GI50 was 3.29 µM and the total growth inhibition concentration (TGI) was greater than 100 µM.

Compound `NCCCNCCS` had a TGI greater than 100 µM.

The compound `CN(C)CCOc1ccc([N+](=O)[O-])c2cccnc12` yielded a total growth inhibition concentration (TGI) greater than 100 µM.

The compound `Nc1ncnc2c1ncn2C1C=C(CO)C(O)C1O` (configuration not stated) yielded a TGI greater than 100 µM.

A further test concerns SN12C renal. Nature of the test: DTP human tumour cell line panel, 48 h.
For `Nc1n[nH]c2cccc(C#Cc3cccc(NC(=O)c4cccc(C(F)(F)F)c4)c3)c12`, the GI50 is 4.09 µM and the TGI came out at 17.3 µM.

The compound `COCCOC(=O)C1=C(O)c2ccccc2S(=O)(=O)N1C` showed a total growth inhibition concentration (TGI) greater than 100 µM.

Take `CNC(=O)OCc1nc(SSC(C)(C)C)n(C)c1COC(=O)NC`: the TGI came to 13.7 µM.

As to `CC1(C)N=C(N)N=C(N)N1c1ccc(CCC(=O)Nc2ccc(S(=O)(=O)F)cc2)c(Cl)c1`, the GI50 was 0.487 µM and the TGI was greater than 100 µM.

On to `CC(C)CNc1nc(-c2ccccc2Cl)nc2ccccc12`, for which the GI50 was 16.5 µM and the total growth inhibition concentration (TGI) turned out to be 30.6 µM.

Take `COC(=O)c1ccc2[nH]c(O)c(C(=Nc3ccc(N(C)C(=O)CN4CCN(C)CC4)cc3)c3ccc4c(c3)OCO4)c2c1`: the GI50 is 0.321 µM and the total growth inhibition concentration (TGI) amounted to 9.61 µM.

With `COc1ccc2c(c1)OC1=C(C(=O)OC1)C2c1cc(OC)c2c(c1)OCCO2` (configuration not stated), the GI50 was 0.0972 µM and the TGI was greater than 100 µM.

Consider `N[C@H](C(=O)O)[C@@H]1CC(Cl)=NO1`, for which the GI50 was 53.7 µM and the TGI was greater than 1000 µM.

Compound `Oc1ccc2ccccc2c1N=Nc1cccc2ccccc12` registered a TGI greater than 100 µM.

In the case of `COc1ccc2c(c1)NC1=C(C(=O)OC1)C2c1cc(OC)c(OC)c(OC)c1` (configuration not stated), the GI50 was less than 0.01 µM and the TGI was greater than 100 µM.

Turning to `CCOc1cc(C(C)(C)C)ccc1C1=N[C@H](c2ccc(Cl)cc2)[C@H](c2ccc(Cl)cc2)N1C(=O)N1CCN(CC#Cc2cccc3c2CN([C@@H]2CCC(=O)NC2=O)C3=O)CC1`, the GI50 was 1.31 µM and the TGI is greater than 100 µM.

`NCCCNCCS` showed a TGI greater than 100 µM.

`CN(C)CCOc1ccc([N+](=O)[O-])c2cccnc12` came in with a total growth inhibition concentration (TGI) greater than 100 µM.

`Nc1ncnc2c1ncn2C1C=C(CO)C(O)C1O` (configuration not stated) gave a total growth inhibition concentration (TGI) greater than 100 µM.

In the next test the test system is SK-MEL-2 melanoma. The experiment in a line: DTP human tumour cell line panel, 48 h.
Consider `Nc1n[nH]c2cccc(C#Cc3cccc(NC(=O)c4cccc(C(F)(F)F)c4)c3)c12`, for which the GI50 was 1.36 µM and the TGI stood at 6.95 µM.

Take `COCCOC(=O)C1=C(O)c2ccccc2S(=O)(=O)N1C`: the TGI was greater than 100 µM.

Compound `CNC(=O)OCc1nc(SSC(C)(C)C)n(C)c1COC(=O)NC` displayed a concentration for total growth inhibition (TGI) of 19.5 µM.

In the case of `CC1(C)N=C(N)N=C(N)N1c1ccc(CCC(=O)Nc2ccc(S(=O)(=O)F)cc2)c(Cl)c1`, the GI50 is 36.1 µM and the total growth inhibition concentration (TGI) is greater than 100 µM.

For `CC(C)CNc1nc(-c2ccccc2Cl)nc2ccccc12`, the GI50 is 23.5 µM and the TGI amounted to 63.4 µM.

Regarding `COC(=O)c1ccc2[nH]c(O)c(C(=Nc3ccc(N(C)C(=O)CN4CCN(C)CC4)cc3)c3ccc4c(c3)OCO4)c2c1`, the GI50 was 1.24 µM and the TGI worked out at 3.69 µM.

For `COc1ccc2c(c1)OC1=C(C(=O)OC1)C2c1cc(OC)c2c(c1)OCCO2` (configuration not stated), the concentration for 50% growth inhibition (GI50) was 0.0483 µM and the TGI was greater than 100 µM.

Turning to `N[C@H](C(=O)O)[C@@H]1CC(Cl)=NO1`, the GI50 is 27.1 µM and the concentration for total growth inhibition (TGI) was 355 µM.

`Oc1ccc2ccccc2c1N=Nc1cccc2ccccc12` yielded a TGI greater than 100 µM.

With `COc1ccc2c(c1)NC1=C(C(=O)OC1)C2c1cc(OC)c(OC)c(OC)c1` (configuration not stated), the 50% growth inhibitory concentration (GI50) was less than 0.01 µM and the total growth inhibition concentration (TGI) is greater than 100 µM.

`CCOc1cc(C(C)(C)C)ccc1C1=N[C@H](c2ccc(Cl)cc2)[C@H](c2ccc(Cl)cc2)N1C(=O)N1CCN(CC#Cc2cccc3c2CN([C@@H]2CCC(=O)NC2=O)C3=O)CC1`: the GI50 is 2.98 µM and the TGI was determined as 13.6 µM.

On to `NCCCNCCS`, for which the concentration for total growth inhibition (TGI) was greater than 100 µM.

Compound `CN(C)CCOc1ccc([N+](=O)[O-])c2cccnc12` registered a TGI greater than 100 µM.

The compound `Nc1ncnc2c1ncn2C1C=C(CO)C(O)C1O` (configuration not stated) came in with a TGI greater than 80.4 µM.

Another test has as its system PC-3 prostate. Nature of the test: DTP human tumour cell line panel, 48 h.
Regarding `Nc1n[nH]c2cccc(C#Cc3cccc(NC(=O)c4cccc(C(F)(F)F)c4)c3)c12`, the GI50 was 3.96 µM and the TGI is 14.6 µM.

Consider `COCCOC(=O)C1=C(O)c2ccccc2S(=O)(=O)N1C`, for which the TGI is greater than 100 µM.

Compound `CNC(=O)OCc1nc(SSC(C)(C)C)n(C)c1COC(=O)NC` gave a TGI of 21 µM.

`CC1(C)N=C(N)N=C(N)N1c1ccc(CCC(=O)Nc2ccc(S(=O)(=O)F)cc2)c(Cl)c1`: the GI50 is 0.0926 µM and the total growth inhibition concentration (TGI) is 49.7 µM.

Regarding `CC(C)CNc1nc(-c2ccccc2Cl)nc2ccccc12`, the GI50 was 18.5 µM and the TGI is 46.4 µM.

`COC(=O)c1ccc2[nH]c(O)c(C(=Nc3ccc(N(C)C(=O)CN4CCN(C)CC4)cc3)c3ccc4c(c3)OCO4)c2c1`: the GI50 was 0.489 µM and the TGI was determined as 3.39 µM.

For the compound `COc1ccc2c(c1)OC1=C(C(=O)OC1)C2c1cc(OC)c2c(c1)OCCO2` (configuration not stated), the concentration for 50% growth inhibition (GI50) is 0.0487 µM and the total growth inhibition concentration (TGI) is greater than 100 µM.

As for `N[C@H](C(=O)O)[C@@H]1CC(Cl)=NO1`, the GI50 was 11.5 µM and the TGI was greater than 1000 µM.

`Oc1ccc2ccccc2c1N=Nc1cccc2ccccc12` yielded a concentration for total growth inhibition (TGI) greater than 100 µM.

With `COc1ccc2c(c1)NC1=C(C(=O)OC1)C2c1cc(OC)c(OC)c(OC)c1` (configuration not stated), the GI50 is less than 0.01 µM and the total growth inhibition concentration (TGI) was greater than 100 µM.

As for `CCOc1cc(C(C)(C)C)ccc1C1=N[C@H](c2ccc(Cl)cc2)[C@H](c2ccc(Cl)cc2)N1C(=O)N1CCN(CC#Cc2cccc3c2CN([C@@H]2CCC(=O)NC2=O)C3=O)CC1`, the GI50 was 0.085 µM and the TGI came to 18.4 µM.

`NCCCNCCS` registered a concentration for total growth inhibition (TGI) greater than 100 µM.

Regarding `CN(C)CCOc1ccc([N+](=O)[O-])c2cccnc12`, the total growth inhibition concentration (TGI) was greater than 100 µM.

Take `Nc1ncnc2c1ncn2C1C=C(CO)C(O)C1O` (configuration not stated): the TGI was determined as 60.5 µM.
